# Assay results: patent US6653529B2, “Use of the maize X112 mutant ahas 2 gene and imidazolinone herbicides for selection of transgenic monocots, maize, rice and wheat plants resistant to the imidazolinone herbicides” (BASF Aktiengesellschaft, priority 2000, dated 2003)
# How the values were obtained:
# [1] = test system: immature embryos of transgenic homozygous T2 plants (26-4); assay: In vitro callus induction and growth from immature embryos on imazethapyr; format: cell-based, rice
# Description: (§1) Immature embryos (12-14 days after fertilization) were dissected from transgenic homozygous T2 plants, identified as 26-4 in FIG. 1, or seed-grown Nortai plants and placed in N6 basal medium (Chiu et al., Sci. Sin 18:659-68, 1975) supplemented with 2 mg/l 2,4-D, 3% sucrose, 0.6% agarose (3SN6d2) amended with 0, 0.01, 0.033, 0.1, 0.3, 1.0, 3.3, 10, 25, or 50 μM imazethapyr (AC263,499). Five embryos were placed on one 10×60 mm Petri dish with two to three plates for each concentration as replications. Three weeks later, in vitro cellular response was monitored by measuring the fresh weight of callus derived from individual embryos.
# [2] = test system: immature embryos of Nortai plants (control); assay: as above; format: cell-based, rice
# Description: as §1
# [3] = test system: transgenic rice Line 29 (maize XI12 ahas2 gene); assay: Greenhouse spray test of rice with PURSUIT imazethapyr (pre- and post-emergence); format: in vivo
# [4] = test system: Nortai (control) suspension cells; assay: In vitro growth of suspension cells on imazethapyr; format: cell-based, rice
# Description: (§2) Cell suspension cultures were initiated from immature embryo-derived calli from either transgenic homozygous T2 plant 26-4-10 or Nortai plants in 3SN6d2 liquid medium and cultured two to three months prior to treatment with various concentrations of imazethapyr. The suspension cells were filtered through a 40μ nylon mesh, collected, and resuspended in 3SN6d2 liquid medium 0.2 ml of the suspended cells were loaded onto a Millipore filter, then placed on top of agarose solidified medium containing 0, 0.1, 0.25, 0.5, 1.0, 2.5, 5, 10, 25, or 50 μM imazethapyr (AC263,499). Three weeks later, all cultures were transferred once to fresh media with the same concentrations of imazethapyr and grown for another 5 weeks. Fresh weight was measured at the end of an 8-week culture period.
# [5] = test system: transgenic suspension cells (T2 plant 26-4-10); assay: In vitro growth of suspension cells on imazethapyr; format: cell-based, rice; conditions: 8-week culture
# Description: as §2
# [6] = test system: T1 corn plants of 1B1 (self and B73×1B1); assay: Spray test of T1 progeny of transgenic corn plant 1B1; format: in vivo; conditions: 4× (250 ai g/ha) at 3-leaf stage; 6 self and 8 B73×1B1 T1 plants
# Description: Transgenic corn plants were evaluated in the greenhouse for resistant levels to various imidazolinone herbicides and inheritance of the transgene. For corn, our protocol involved self- or cross-pollinating the transgenic plants for 2 to 3 generations and spraying T1 progeny plants to identify the resistant vs. susceptible plants. Detailed analysis for levels of herbicide resistance and the inheritance pattern. Identification of lines homozygous for the transgene is carried out in T2 generation with self-pollination and cross-pollination derived progeny plants. […] B73 and Mo17 lines were obtained USDA/ARS and Crop Sciences, UIUC, Urbana, Ill. 61801-4798. T1 plants were treated with 4×PURSUIT® imazethapyr (250 ai g/ha) at 3-leaf stage and rated as either resistant or susceptible to the herbicide. A total of 6 self and 8 B73×1B1 T1 plants were sprayed and all survived the herbicide treatments.
# [7] = test system: transgenic wheat plants (0407-1 and progeny); assay: Greenhouse spray test of wheat with RAPTOR imazamox; format: in vivo
# Source text: Sow seed to 3×5-cell flats at about 10 seed per cell. Grow the plants for about two weeks. On the day of spraying, water plants well and let excess water drip out. Spray plants on a belt-sprayer with the imidazolinone herbicides at desired rates. […] Resume regular water schedule three days after spraying. Closely observe the plants for the next two to four weeks. Symptoms of herbicide injury will be visible two weeks after spraying and susceptible plants will die four to six weeks later. We usually measure plant height and score the plant morphology with a 0 to 10 rating with 0 for dead plants and 10 for healthy plants with no or minimum injury.
# Wheat transformation efficiency, calculated as percent of immature embryos produced at least one imidazolinone-resistant transgenic plant ranged from 0.4 to 3.1% (Table 7). A fertile regenerant 0407-1 generated from early transformation experiment with Agrobacterium (LBA4404) containing pAC1558 was evaluated for resistance to RAPTOR® imazamox post emergence. Untransformed Ciccio and Closseo plants were very sensitive to RAPTOR® imazamox and dead at very low rate.
# We also analyzed T2 progeny plants from one of the best lines of 0407-1-10. T2 seeds were planted at 10 seeds per pot and two pots per line were sprayed at 0, 10, 20, 30, 40 and 50 g/ha RAPTOR® imazamox. Most plants did show an increase in resistance over non-transformed control (FIG. 6B).
# [8] = post-emergence, Rate 63 (g ai/ha)
# [9] = post-emergence, Rate 125 (g ai/ha)
# [10] = post-emergence, Rate 250 (g ai/ha)
smiles,measurement,setting,value
"CCc1cnc(C2=NC(C)(C(C)C)C(=O)N2)c(C(=O)O)c1 (centres unmarked) [PURSUIT ®, imazethapyr]",concentration up to which callus induction and growth were normal,[1]; transgenic embryos,up to 1 μM
same,concentration with no callus induction,[1]; transgenic embryos,10 µM
same,reduction in growth,"[1]; transgenic embryos, 3.3 μM",about 50%
same,increase in resistance to imazethapyr in vitro,"[1]; transgenic vs untransformed, immature embryos (also suspension cells / cell lines)",100 fold
same,growth (reduced to) on imazethapyr,[2]; 0.03 μM,less than 50%
same,concentration at which callus induction was totally inhibited,[2]; 3 weeks,0.1 µM
same,No. panicles/plant Mean,[3]; [8],27.7
same,No. tillers/plant Mean,[3]; [8],34.5
same,Plant height Mean,[3]; [8],112.5 cm
same,Yield % 0×,[3]; [8],93 % 0×
same,Yield Mean,[3]; [8],199.0 g/5 plants
same,No. panicles/plant Mean,[3]; [9],24.5
same,No. tillers/plant Mean,[3]; [9],28.3
same,Plant height Mean,[3]; [9],114.1 cm
same,Yield % 0×,[3]; [9],113 % 0×
same,Yield Mean,[3]; [9],240.7 g/5 plants
same,No. panicles/plant Mean,[3]; [10],23.0
same,No. tillers/plant Mean,[3]; [10],24.1
same,Plant height Mean,[3]; [10],110.2 cm
same,Yield % 0×,[3]; [10],93 % 0×
same,Yield Mean,[3]; [10],197.3 g/5 plants
same,No. panicles/plant Mean,"[3]; pre-emergence, 63 g/ha",15.6
same,No. tillers/plant Mean,"[3]; pre-emergence, 63 g/ha",16.2
same,Plant height Mean,"[3]; pre-emergence, 63 g/ha",92.7 cm
same,Yield % 0×,"[3]; pre-emergence, 63 g/ha",93 % 0×
same,Yield Mean,"[3]; pre-emergence, 63 g/ha",156.3 g/5 plants
same,No. panicles/plant Mean,"[3]; pre-emergence, 125 g/ha",16.3
same,No. tillers/plant Mean,"[3]; pre-emergence, 125 g/ha",14.3
same,Plant height Mean,"[3]; pre-emergence, 125 g/ha",95.1 cm
same,Yield % 0×,"[3]; pre-emergence, 125 g/ha",99 % 0×
same,Yield Mean,"[3]; pre-emergence, 125 g/ha",166.7 g/5 plants
same,No. panicles/plant Mean,"[3]; pre-emergence, 250 g/ha",16.2
same,No. tillers/plant Mean,"[3]; pre-emergence, 250 g/ha",16.3
same,Plant height Mean,"[3]; pre-emergence, 250 g/ha",93.1 cm
same,Yield % 0×,"[3]; pre-emergence, 250 g/ha",92 % 0×
same,Yield Mean,"[3]; pre-emergence, 250 g/ha",155.3 g/5 plants
same,concentrations that inhibit the growth of untransformed rice cells,[4]; in vitro,≥ 0.1 µM
same,concentration at which growth of control cells was halted,"[4]; lowest concentration used, 8-week culture",0.1 μm
same,concentration up to which growth of transgenic suspension cells was normal,[5],up to 1.0 μm
same,concentration with no growth,[5],5 μm
same,concentration with sharp decrease in growth,[5],2 μm
same,survival of T1 plants,[6],all survived
"COCc1cnc(C2=NC(C)(C(C)C)C(=O)N2)c(C(=O)O)c1 (centres unmarked) [RAPTOR ®, imazamox]",reduction of plant height of resistant transgenic plants,"[7]; 20 g/ha, T2 progeny of 0407-1-10",about 25%
same,"T1 transgenic plants dead, out of 288",[7]; 50 g/ha,218
same,"T1 transgenic plants that survived, out of 288",[7]; 50 g/ha,70
same,stunting of resistant plants,"[7]; 50 g/ha, T1",33-70%
same,increase of tolerance in transgenic wheat plants,[7]; in vivo,5 ×
